According to PubChem BioAssay AID2060896 (Molecular Pharmacology Branch, DTP, NCI, 2025):
Values belong to the compound of their own block, whether it stands above or below them.

Test system: 941728-121-R-J1-PDC complex spheroid viability
Test: Anticancer human tumor 941728-121-R-J1-PDC patient-derived lung adenocarcinoma cell line growth inhibition [RAS]
Details: for IC50: curve of first compound; for viability, T/C: stronger effect = lower value
Method in brief: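 Multi-cell-type spheroids: tumor cells plus HUVEC endothelial cells and mesenchymal stem cells. RAS-pathway inhibitors were combined with targeted agents, each dosed in half-log steps down from clinical Cmax, or from 10 microM when Cmax was unknown.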

[1] = second compound 0.000949 µM, first compound 0.0316 µM
[2] = second compound 0.000949 µM, first compound 0.1 µM
[3] = second compound 0.003 µM, first compound 0.0316 µM
[4] = second compound 0.003 µM, first compound 0.1 µM
[5] = second compound 0.00949 µM, first compound 0.0316 µM
[6] = second compound 0.00949 µM, first compound 0.1 µM
[7] = second compound 0.03 µM, first compound 0.0316 µM
[8] = second compound 0.03 µM, first compound 0.1 µM
[9] = second compound 0.0949 µM, first compound 0.0316 µM
[10] = second compound 0.0949 µM, first compound 0.1 µM
[11] = second compound 0.3 µM, first compound 0.0316 µM
[12] = second compound 0.3 µM, first compound 0.1 µM
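Further: spheroids exposed to compounds for 7 days before readout.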
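Wherever viability, T/C is given: 100% = DMSO vehicle control viability.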

IC50 (second compound 0.000949 µM): < 31.6 nM
IC50 (second compound 0.003 µM): < 31.6 nM
IC50 (second compound 0.00949 µM): < 31.6 nM
IC50 (second compound 0.03 µM): < 31.6 nM
IC50 (second compound 0.0949 µM): < 31.6 nM
IC50 (second compound 0.3 µM): < 31.6 nM
SMILES: CC(C)NCC(C(=O)N1CCN(c2ncnc3c2C(C)CC3O)CC1)c1ccc(Cl)cc1 (centres undefined) + CCn1c(-c2cccnc2C(C)OC)c2c3cc(ccc31)N1CCOC(CC(NC(=O)C(C(C)C)N(C)C(=O)C3(F)CCN(C(=O)C#CC(C)(C)N(C)C)CC3)C(=O)N3CCCC(N3)C(=O)OCC(C)(C)C2)C1
viability, T/C [1]: 25.4%
viability, T/C [2]: 23%
viability, T/C (second compound 0.000949 µM, first compound 0.316 µM): 17.7%
viability, T/C (second compound 0.000949 µM, first compound 1 µM): 18.8%
viability, T/C (second compound 0.000949 µM, first compound 3.16 µM): 14.5%
viability, T/C (second compound 0.000949 µM, first compound 10 µM): 7.61%
viability, T/C [3]: 23.5%
viability, T/C [4]: 21.9%
viability, T/C (second compound 0.003 µM, first compound 0.316 µM): 18.5%
viability, T/C (second compound 0.003 µM, first compound 1 µM): 18.1%
viability, T/C (second compound 0.003 µM, first compound 3.16 µM): 14.7%
viability, T/C (second compound 0.003 µM, first compound 10 µM): 9.24%
viability, T/C [5]: 23.1%
viability, T/C [6]: 15.8%
viability, T/C (second compound 0.00949 µM, first compound 0.316 µM): 22.4%
viability, T/C (second compound 0.00949 µM, first compound 1 µM): 17.5%
viability, T/C (second compound 0.00949 µM, first compound 3.16 µM): 13.2%
viability, T/C (second compound 0.00949 µM, first compound 10 µM): 9.76%
viability, T/C [7]: 22.8%
viability, T/C [8]: 22.1%
viability, T/C (second compound 0.03 µM, first compound 0.316 µM): 19.3%
viability, T/C (second compound 0.03 µM, first compound 1 µM): 17.7%
viability, T/C (second compound 0.03 µM, first compound 3.16 µM): 12.9%
viability, T/C (second compound 0.03 µM, first compound 10 µM): 10.9%
viability, T/C [9]: 21.1%
viability, T/C [10]: 21.2%
viability, T/C (second compound 0.0949 µM, first compound 0.316 µM): 20.7%
viability, T/C (second compound 0.0949 µM, first compound 1 µM): 17.8%
viability, T/C (second compound 0.0949 µM, first compound 3.16 µM): 11.9%
viability, T/C (second compound 0.0949 µM, first compound 10 µM): 10.9%
viability, T/C [11]: 24.7%
viability, T/C [12]: 22.9%
viability, T/C (second compound 0.3 µM, first compound 0.316 µM): 18.9%
viability, T/C (second compound 0.3 µM, first compound 1 µM): 17.1%
viability, T/C (second compound 0.3 µM, first compound 3.16 µM): 13%
viability, T/C (second compound 0.3 µM, first compound 10 µM): 11.2%

IC50 (second compound 0.000949 µM): < 0.316 nM
IC50 (second compound 0.003 µM): < 0.316 nM
IC50 (second compound 0.00949 µM): < 0.316 nM
IC50 (second compound 0.03 µM): < 0.316 nM
IC50 (second compound 0.0949 µM): < 0.316 nM
IC50 (second compound 0.3 µM): < 0.316 nM
SMILES: CC(C)n1nc(-c2ccc3oc(N)nc3c2)c2c(N)ncnc21 + CCn1c(-c2cccnc2C(C)OC)c2c3cc(ccc31)N1CCOC(CC(NC(=O)C(C(C)C)N(C)C(=O)C3(F)CCN(C(=O)C#CC(C)(C)N(C)C)CC3)C(=O)N3CCCC(N3)C(=O)OCC(C)(C)C2)C1
viability, T/C (second compound 0.000949 µM, first compound 0.000316 µM): 21.4%
viability, T/C (second compound 0.000949 µM, first compound 0.001 µM): 19.7%
viability, T/C (second compound 0.000949 µM, first compound 0.00316 µM): 12.9%
viability, T/C (second compound 0.000949 µM, first compound 0.01 µM): 15.4%
viability, T/C [1]: 11.6%
viability, T/C [2]: 6.3%
viability, T/C (second compound 0.003 µM, first compound 0.000316 µM): 23.6%
viability, T/C (second compound 0.003 µM, first compound 0.001 µM): 19.4%
viability, T/C (second compound 0.003 µM, first compound 0.00316 µM): 14.5%
viability, T/C (second compound 0.003 µM, first compound 0.01 µM): 15.6%
viability, T/C [3]: 9.94%
viability, T/C [4]: 7.46%
viability, T/C (second compound 0.00949 µM, first compound 0.000316 µM): 21%
viability, T/C (second compound 0.00949 µM, first compound 0.001 µM): 17.3%
viability, T/C (second compound 0.00949 µM, first compound 0.00316 µM): 19.8%
viability, T/C (second compound 0.00949 µM, first compound 0.01 µM): 15.3%
viability, T/C [5]: 9.22%
viability, T/C [6]: 6.25%
viability, T/C (second compound 0.03 µM, first compound 0.000316 µM): 20.8%
viability, T/C (second compound 0.03 µM, first compound 0.001 µM): 19.7%
viability, T/C (second compound 0.03 µM, first compound 0.00316 µM): 16.8%
viability, T/C (second compound 0.03 µM, first compound 0.01 µM): 14.8%
viability, T/C [7]: 8.83%
viability, T/C [8]: 8.55%
viability, T/C (second compound 0.0949 µM, first compound 0.000316 µM): 18.8%
viability, T/C (second compound 0.0949 µM, first compound 0.001 µM): 20.8%
viability, T/C (second compound 0.0949 µM, first compound 0.00316 µM): 17.4%
viability, T/C (second compound 0.0949 µM, first compound 0.01 µM): 15.2%
viability, T/C [9]: 9.76%
viability, T/C [10]: 10.1%
viability, T/C (second compound 0.3 µM, first compound 0.000316 µM): 21.7%
viability, T/C (second compound 0.3 µM, first compound 0.001 µM): 18.9%
viability, T/C (second compound 0.3 µM, first compound 0.00316 µM): 18.9%
viability, T/C (second compound 0.3 µM, first compound 0.01 µM): 15.9%
viability, T/C [11]: 10.5%
viability, T/C [12]: 10.8%
